EP2289882A1, “3-oxopiperazinium derivatives as agonists of nerve growth factor and their use as medicaments” (Institut d'Investigacions Biomédiques August PI I Sunyer, priority 2009, dated 2011)

Assays:
RN22 cells = experiment: RN22 cell survival assay under CuSO4 stress (MTT); type: cell-based, rat; conditions: CuSO4 150 µM stress, 1 ng/ml - 10 µg/ml, 24 h; RN22 expresses p75 but not TrkA
Experimental: Compounds identified from the initial library screening were also tested to assess their capacity to promote cell survival. To delineate p75 signalling independent of TrkA, we used a rat schwannoma cell line (RN22) expressing p75, but not TrkA, (Gentry et al., 2000). Cell culture. The rat schawnnoma cell line RN22 was cultured in 5% CO2 at 37°C in Dulbecco's modified Eagle's medium (DMEM) with 10% fetal bovine serum (FBS) and penicillin/streptomycin. RN22 cells were plated at 20,000 cells/well on a 24-well plate in DMEM alone and after allowing the cells to adhere for 3 days, cupper sulphate (CuSO4) (150 µM) was added with or without NGF (100 ng/ml) or the peptidomimetic molecules A26-23, A26-24 and A28-A6 at different concentrations (1 ng/ml - 10 µg/ml) to generate stress and cell death. After 24 h cell viability was studied by determining the amount of yellow MTT (Sigma) that was reduced to insoluble purple formazan. After removing the medium, the water-insoluble formazan was solubilised with DMSO (Sigma), and the dissolved material was measured spectrophotometrically at a wavelength of 570 nm, subtracting the background at 650 nm (Frade, 2005).

PC12 cells = experiment: PC12 cell differentiation (neurite outgrowth); type: cell-based; conditions: 3 days, 2 ng/ml to 50 µg/ml, reduced serum (0.5% FBS and 1% HS); compared with NGF 100 ng/ml
Experimental: PC 12 cell differentiation was measured by plating cells onto collagen-coated 24-wells plates. NGF (100 ng/ml) or the small chemicals at different concentrations were added and the percentage of cells with neurite processes greater than two cell bodies in length were counted after relevant treatment. For each experiment at least 300 cells were randomly measured (Burstein and Greene, 1978). Cell culture. PC12 cells were maintained at 37°C in DMEM supplemented with 2.5% FBS, 15% of Horse serum (HS) and penicillin/streptomycin in a humidified 5% CO2 incubator. The cells were grown on 60-and 100-mm tissue culture dishes (Becton Dickinson). PC 12 cells were cultured for 3 days in the presence of the peptoids (from 2 ng/ml to 50 µg/ml) under reduced serum conditions (0.5% FBS and 1% HS).

## 8-[2-(2-(5-methyl-1H-indol-2-yl)ethylamino)-2-oxoethyl]-7-oxo-8-aza-5-azoniaspiro[4.5]decane [A28-A6]
RN22 cells
  survival of RN22 cells (cell viability, MTT): not to promote survival of RN22 cells
PC12 cells
  differentiation of PC12 cells (percentage of cells with neurite processes greater than two cell bodies in length): induce the differentiation of PC12 cells at different concentrations to an extent substantially comparable with that induce by NGF

## C[N+]1(C)CCN(CC(=O)NCCc2ccc([N+](=O)[O-])cc2)C(=O)C1.[Cl-] [A26-23, 1,1-dimethyl-4-[2-(4-nitrophenethylamino) -2-oxoethyl] -3-oxopiperazinium chloride]
RN22 cells
  survival of RN22 cells (cell viability, MTT): not to promote survival of RN22 cells
PC12 cells
  differentiation of PC12 cells (percentage of cells with neurite processes greater than two cell bodies in length): induce the differentiation of PC12 cells at different concentrations to an extent substantially comparable with that induce by NGF

## C[N+]1(Cc2ccccc2)CCN(CC(=O)NCCc2ccc([N+](=O)[O-])cc2)C(=O)C1.[Cl-] (stereo not drawn) [A26-64, 1-benzyl-1-methyl-4-[2-(4-nitrophenethylamino)-2-oxoethyl]-3-oxopiperazinium chloride]
RN22 cells
  survival of RN22 cells (cell viability, MTT): not to promote survival of RN22 cells
PC12 cells
  differentiation of PC12 cells (percentage of cells with neurite processes greater than two cell bodies in length): induce the differentiation of PC12 cells at different concentrations to an extent substantially comparable with that induce by NGF
